{"source": "patent US4080467A", "about": "“Pharmaceutical compositions comprising 1,3-dithiolan-2-ylidene malonate derivatives” (Nihon Nohyaku Co., Ltd., priority 1976, dated 1978)", "key": {"[1]": {"tested_on": "cirrhosis (carbon tetrachloride)", "assay": "Therapeutic effect on cirrhosis (carbon tetrachloride)", "format": "in vivo, male rat (4 week-old SD-strain)", "details": "for Degree of cirrhosis (histopathological examination): 2000 ppm diet, one symbol per animal; for p-GOT activity / p-GPT activity: diet containing 2000 ppm", "procedure": "The therapeutic effect of the compound of this invention on cirrhosis, which had been caused by carbon tetrachloride administration, was examined.\nA 10% solution of carbon tetrachloride in olive oil was administered to the male rat (4 week-old SD-strain) intraperitoneally at the dose of 0.5 ml carbon tetrachloride/kg twice a week for a period of 10 weeks, to induce cirrhosis. Four days after the final administration of carbon tetrachloride, the formation of pseudo-lobulus was confirmed. Then the diseased animals were divided into two groups. Therapeutic group was submitted a diet containing 2000 ppm of Compound 4, while the positive control group was submitted a normal diet. Control group, to which olive oil alone had been administered, was submitted a normal diet.\nAt 1, 2, 4 and 8 weeks after beginning of Compound 4 feeding, 5 animals from each group were sacrificed, and the therapeutic effect on cirrhosis was evaluated by examining plasma transaminase activity (p-GPT and p-GOT, Reitman-Frankel method) and observing histopathological changes.\nDegree of cirrhosis in the histopathological examination was graded as follows: […]"}, "fatty liver (ethionine)": {"tested_on": "fatty liver (ethionine)", "assay": "Effect on fatty liver (ethionine model)", "format": "in vivo, male mice (4 week-old, dd-strain)", "details": "diet plus 0.2% ethionine and 0.2% compound, 5 days", "description": "There are known many factors inducing fatty liver. But, the fatty liver is grouped into a couple of patterns from the mechanism of lipid accumulation or metabolism of lipoprotein in the liver. Ethionine is a typical compound inducing fatty liver. It inhibits RNA and protein syntheses and destructs polysome of the liver cell. Fatty liver is induced by the inhibition of protein synthesis and the disturbance of lipoprotein secretion.\nUsually, fatty liver is closely related to the accumulation of triglyceride in the liver. In the present example, the degree of fatty liver and protective or therapeutic effect against the fatty liver was evaluted by measurement of triglyceride content in the liver.\nThe animals used in the test were 4 week-old male mice (dd-strain).\nThe mice were submitted for 5 days to a normal diet (control), to the normal diet plus 0.2% ethionine (positive control), to the normal diet plus 0.2% ethionine and 0.2% of the compound of this invention, or to the normal diet plus 0.2% ethionine and 0.2% methionine which was the referential diet. At the end of the period of 5 days, content of triglyceride in the liver was studied colorimetrically by chromotropic acid method and the result was represented as triolein content (mg/g-liver)."}, "[2]": {"tested_on": "acute liver damage associated with periportal necrosis (allyl alcohol)", "assay": "Protective effect on acute liver damage associated with periportal necrosis (allyl alcohol model), BSP test", "format": "in vivo, male mouse (4 week-old dd-strain)", "details": "100 mg/kg oral 6 h before allyl alcohol 0.075 ml/kg; 24 h after", "procedure": "The compound of this invention or anethol trithion was orally administered to the male mouse (4 week-old dd-strain) at the dose of 100 mg/kg. Six hours after it, allyl alcohol was orally administered at the dose of 0.075 ml/kg. Twenty four hours after it, the animals were sacrificed to collect blood samples. The residual quantity of BSP was measured by BSP test, from which the protective effect of the compound of this invention was evaluated."}, "[3]": {"tested_on": "acute liver damage associated with discrete lobular necrosis (D-galactosamine)", "assay": "Protective effect on acute hepatitis with mesenchymal reaction and discrete lobular necrosis (D-galactosamine model)", "format": "in vivo, male rat (SD strain)", "details": "100 mg/kg oral 6 h before D-galactosamine", "procedure": "D-Galactosamine is a compound which induces a discrete lobular necrosis associated with mesenchymal reaction similar to the change observed in human viral hepatitis, so that it is frequently used in producing a model for viral hepatitis.\nThe compound of this invention or anethol trithion was administered orally to the male rat (SD strain) at the dose of 100 mg/kg. Six hours after it, D-galacetosamine was intraperitoneally administered at the dose of 600 mg/kg. Four hours after it, an additional 300 mg/kg was administered intraperitoneally. Eight hours after it, the animals were sacrificed to collect the blood samples. P-GPT activity and triglyceride in the liver were measured to evaluate the effect of the compound of this invention."}, "[4]": {"assay": "Effect on concentration of ethyl alcohol in the blood", "format": "in vivo, mice", "details": "250 mg/kg oral 6 h before ethyl alcohol 1,000 mg/kg", "procedure": "The test compounds are dissolved or suspended in olive oil and administered orally at the dose of 250 mg/kg to the mice. After 6 hours, 1,000 mg/kg of ethyl alcohol was given orally. Blood was taken in a capillary from caudal vein at the time indicated in the results. The plasma was obtained by centrifugation. The concentration of ethyl alcohol in the plasma was measured by FID type gas liquid chromatography. Five mice were used for each group."}, "[5]": {"assay": "Acute oral toxicity to male mice (LD50)", "details": "mouse, in vivo"}, "[6]": {"tested_on": "bile flow and biliary salt", "assay": "Cholagogic action: bile flow and excretion of biliary salt", "format": "in vivo, male rat (4 week-aged, SD-JCL strain)", "details": "200 mg/kg oral; for bile flow / excretion of biliary salt: before treatment = 100"}}}
{"compound": "CC(C)OC(=O)C(C(=O)OC(C)C)=C1SCCS1", "note": "[Compound 4, Diisopropyl 1,3-dithiolan-2-yliden malonate]", "values": [{"measurement": "Degree of cirrhosis (histopathological examination)", "setting": "[1]; 1 week", "result": "+ +++ + ++ +++"}, {"measurement": "Degree of cirrhosis (histopathological examination)", "setting": "[1]; 2 weeks", "result": "++ ±"}, {"measurement": "Degree of cirrhosis (histopathological examination)", "setting": "[1]; 8 weeks", "result": "+ ± and +++ ±"}, {"measurement": "p-GOT activity", "setting": "[1]; 1 week", "result": "277±135", "unit": "Karmen unit"}, {"measurement": "p-GPT activity", "setting": "[1]; 1 week", "result": "81.6±25.9", "unit": "Karmen unit"}, {"measurement": "p-GOT activity", "setting": "[1]; 2 weeks", "result": "96.8±2.6", "unit": "Karmen unit"}, {"measurement": "p-GPT activity", "setting": "[1]; 2 weeks", "result": "28.8±3.0", "unit": "Karmen unit"}, {"measurement": "p-GOT activity", "setting": "[1]; 4 weeks", "result": "64.0±5.5", "unit": "Karmen unit"}, {"measurement": "p-GPT activity", "setting": "[1]; 4 weeks", "result": "40.6±3.8", "unit": "Karmen unit"}, {"measurement": "p-GOT activity", "setting": "[1]; 8 weeks", "result": "91.8±7.2", "unit": "Karmen unit"}, {"measurement": "p-GPT activity", "setting": "[1]; 8 weeks", "result": "32.8±6.1", "unit": "Karmen unit"}, {"measurement": "Triglyceride (content in the liver, as triolein)", "setting": "fatty liver (ethionine)", "result": "10.4 ± 1.6", "unit": "mg/g"}, {"measurement": "Index of hepatotoxicity: BSP (residual quantity of BSP)", "setting": "[2]", "result": "16±2.3"}, {"measurement": "Triglyceride in liver", "setting": "[3]", "result": "4.6 ± 0.73", "unit": "mg/g"}, {"measurement": "p-GPT", "setting": "[3]", "result": "63±23", "unit": "Karmen unit"}, {"measurement": "Concentration of Ethyl alcohol in Plasma", "setting": "[4]; 0 min", "result": "9±4", "unit": "ppm"}, {"measurement": "Concentration of Ethyl alcohol in Plasma", "setting": "[4]; 5 min", "result": "727±84", "unit": "ppm"}, {"measurement": "Concentration of Ethyl alcohol in Plasma", "setting": "[4]; 15 min", "result": "715±146", "unit": "ppm"}, {"measurement": "Concentration of Ethyl alcohol in Plasma", "setting": "[4]; 30 min", "result": "430±105", "unit": "ppm"}, {"measurement": "Concentration of Ethyl alcohol in Plasma", "setting": "[4]; 60 min", "result": "13±11", "unit": "ppm"}, {"measurement": "LD50", "setting": "[5]", "result": 1350, "unit": "mg/kg"}, {"measurement": "bile flow", "setting": "[6]; 1 hour after treatment", "result": "110±4.2"}, {"measurement": "excretion of biliary salt", "setting": "[6]; 1 hour after treatment", "result": "105±13"}, {"measurement": "bile flow", "setting": "[6]; 2 hours after treatment", "result": "115±6.3"}, {"measurement": "excretion of biliary salt", "setting": "[6]; 2 hours after treatment", "result": "125±20"}, {"measurement": "bile flow", "setting": "[6]; 3 hours after treatment", "result": "110±7.2"}, {"measurement": "excretion of biliary salt", "setting": "[6]; 3 hours after treatment", "result": "132±26"}, {"measurement": "bile flow", "setting": "[6]; 4 hours after treatment", "result": "112±8.5"}, {"measurement": "excretion of biliary salt", "setting": "[6]; 4 hours after treatment", "result": "115±23"}, {"measurement": "bile flow", "setting": "[6]; 5 hours after treatment", "result": "92±4.7"}, {"measurement": "excretion of biliary salt", "setting": "[6]; 5 hours after treatment", "result": "81±7.2"}, {"measurement": "Amount of total biliary salts excreted for 5 hours relative to control", "setting": "[6]; versus control", "result": 1.61, "unit": "times"}, {"measurement": "Quantity of total excreted bile for 5 hours relative to control", "setting": "[6]; versus control", "result": 1.15, "unit": "times"}]}
